Measured values as given in PMC10090446, “Population pharmacokinetic analysis and dosing optimization of polymyxin B in critically ill patients” (Frontiers in Pharmacology, 2023).
Like-named read-outs stand apart in the source and are kept apart here. Positions of bridges follow the written chain, without caps; N, C: chain ends. Non-standard residues stand in square brackets, D forms with d. Residues, ends and D or L forms follow the SMILES beside them. *: point of attachment. X1 = CC[C@H](C)CCCCC(=O)*; Dab = NCC[C@H](N)C(=O)O

Assay: Steady-state plasma concentrations of polymyxin B (total of B1, B2, B1-Ile) by LC-MS/MS
Format: in vivo
Conditions: human, iv, read-out: OUT (observed polymyxin B plasma concentration)
Excerpt: We gather data from critically ill patients (≥18 years old) who were given intravenous drip polymyxin B treatment with blood concentration monitoring at the hospital from November 2021 to September 2022. The attending physician decided to administer polymyxin B. At the same time, patients who received continuous renal replacement therapy (CRRT) (n = 10) or extracorporeal membrane oxygenation (ECMO) (n = 2) at the time of blood collection were excluded. Patients’ information, including gender, age, WT, serum creatinine (Scr), CCR, ALB, APACHE-II, infection diagnosis, and pathogenic bacteria, were obtained from the electronic system for medical records. CCR was generated by adopting the Cockcroft—Gault equation with WT and age ([Cucci et al., 2022]). The Ethical Committees of the Second Affiliated Hospital of the South China University of Technology authorized the study (K-2022-020-01).
Patients were treated with polymyxin B, and plasma samples were collected ≥ 48 h after the treatment. Each patient contributed clinical samples, of which 37.5% (n = 24) were sampled with troughs (within 1 h before administration), 35.9% (n = 23) were sampled with peaks (within 1 h after the end of the infusion), and 26.6% (n = 17) were sampled at 6-8 h after the infusion. The dosing regimens of polymyxin B were a loading dose of 100 mg–150 mg and a maintenance dose of 50 mg–75 mg q12h, and the infusion duration was about 1–2 h. In preparation for analysis, samples were centrifuged for 10 min at 3000 r min^-1 after collection, and the upper plasma after centrifugation was stored at −20°C.
According to previous studies, total polymyxin B1, polymyxin B2, and polymyxin B1-Ile concentrations in human blood plasma were quantified using LC-MS/MS ([Meng et al., 2016]; [Hee et al., 2017]). The standard used in our experiments was the USP standard with the batch number of R104F0. The chromatographic column was the Kinetex C18 (3 μm × 2.1 mm×100 mm. Phenomenex). A: B mobile phase was 0.1% formic acid to acetonitrile. With changes in the linear velocity ratio, gradient elution was as follows: 15% −15% B, 0–2.0 min; 15%–10% B, 2.01–4.0 min; 10%–30% B, 4.01–5.0 min; 15% B, 5.01 min; and 15%–15% B, 5.02–10 min. The flow rate was constrained to 0.8 mL min^-1, and the column temperature was set to 40°C. The parent/daughter ion mass ratios used in the mass spectrometry were m/z 602.6/241.2 (polymyxin B1 and B1-Ile) and m/z 595.6/202.1 (polymyxin B2). Plasma samples (100 μL) were collected from centrifuged blood samples, mixed with 500 μL precipitant (acetonitrile with 6.67% formic acid) and vortexed well for 1 min. The lower limit of quantification (LLOQ) of the bioanalytical method used for quantifying polymyxin B1, B2, and B1-Ile concentrations was 0.19, 0.02 and 0.02 mg L^-1, respectively. The linear relationships of polymyxin B1, B2, and B1-Ile concentrations in the range of 0.19–24.13 mg L^-1, 0.02–2.7 mg L^-1 and 0.02–2.38 mg L^-1 were considered good (R^2 = 0.99677, R^2 = 0.99656, R^2 = 0.99484) and the accuracy was within 95.3%–105.3%, 92.2%–104.8%, and 95.8%–105.4%. […] Finally, 200 μL of the supernatant from the centrifugation of the combination at 14,000 r min^-1 for 10 min was employed to measure the amounts of polymyxin B.

In the case of `CC[C@H](C)CCCCC(=O)N[C@@H](CCN)C(=O)N[C@H](C(=O)N[C@@H](CCN)C(=O)N[C@H]1CCNC(=O)[C@H]([C@@H](C)O)NC(=O)[C@H](CCN)NC(=O)[C@H](CCN)NC(=O)[C@H](CC(C)C)NC(=O)[C@@H](Cc2ccccc2)NC(=O)[C@H](CCN)NC1=O)[C@@H](C)O` [polymyxin B] (X1-[Dab]T[Dab][Dab][Dab][dF]L[Dab][Dab]T; lactam 4-C), the level at 66 h (50 mg, patient ID 18, TIME 66, DOSE 50 at 0, 12, 24, 36, 48, 60, DUR 2, WT 80, CCR 169.94, ALB 41.5, APACHE 29, single measurement) is reported as 1800 ng/mL, the level at 72 h (50 mg, patient ID 18, TIME 72, DOSE 50 at 0, 12, 24, 36, 48, 60, DUR 2, WT 80, CCR 169.94, ALB 41.5, APACHE 29, single measurement) is reported as 839 ng/mL and the level at 97 h (75 mg, patient ID 12, TIME 97, DOSE 75 from 0, ADDL 9, II 12, DUR 1, WT 60, CCR 104.47, ALB 33.9, APACHE 24, single sample) is reported as 9560 ng/mL. The level at 102 h (75 mg, patient ID 12, TIME 102, DOSE 75 from 0, ADDL 9, II 12, DUR 1, WT 60, CCR 104.47, ALB 33.9, APACHE 24, single sample) was 4840 ng/mL, the level at 108 h (75 mg, patient ID 12, TIME 108, DOSE 75 from 0, ADDL 9, II 12, DUR 1, WT 60, CCR 104.47, ALB 33.9, APACHE 24, single sample) was 2990 ng/mL and the level at 74.33 h (75 mg, patient ID 15, TIME 74.33, after DOSE 75 at 73 (DUR 1, ADDL 4, II 12), WT 50, CCR 35.85, ALB 29.5, APACHE 39, single measurement) was 8900 ng/mL. It also gave a level at 217 h (75 mg, patient ID 22, TIME 217, DOSE 75 every 12 from 0 (ADDL 18), DUR 1, WT 60, CCR 155.65, ALB 24.3, APACHE 30, single measurement) of 3620 ng/mL, a level at 222 h (75 mg, patient ID 22, TIME 222, DOSE 75 every 12 from 0 (ADDL 18), DUR 1, WT 60, CCR 155.65, ALB 24.3, APACHE 30, single measurement) of 2060 ng/mL and a level at 228 h (75 mg, patient ID 22, TIME 228, DOSE 75 every 12 from 0 (ADDL 18), DUR 1, WT 60, CCR 155.65, ALB 24.3, APACHE 30, single measurement) of 1060 ng/mL. It also gave a level at 60.5 h (patient ID 1, TIME 60.5, DOSE 100 at 0 then 50 every 12 to 48, DUR 1, WT 58, CCR 69.29, ALB 23.1, APACHE 30, single sample) of 2270 ng/mL, a level at 325 h (patient ID 3, TIME 325, DOSE 100 at 0 then 50 from 12, ADDL 27, II 12, DUR 1, WT 57, CCR 61.5, ALB 33.8, APACHE 21, single sample) of 6600 ng/mL and a level at 330 h (patient ID 3, TIME 330, DOSE 100 at 0 then 50 from 12, ADDL 27, II 12, DUR 1, WT 57, CCR 61.5, ALB 33.8, APACHE 21, single sample) of 2930 ng/mL. It also gave a level at 336 h (patient ID 3, TIME 336, DOSE 100 at 0 then 50 from 12, ADDL 27, II 12, DUR 1, WT 57, CCR 61.5, ALB 33.8, APACHE 21, single sample) of 3140 ng/mL, a level at 59 h (patient ID 4, TIME 59, DOSE 100 at 0 then 50 every 12 to 48, DUR 1, WT 58, CCR 61.95, ALB 25.5, APACHE 28, single sample) of 863 ng/mL and a level at 64.5 h (patient ID 4, TIME 64.5, DOSE 100 at 0 then 50 every 12 to 60, DUR 1, WT 58, CCR 61.95, ALB 25.5, APACHE 28, single sample) of 2330 ng/mL. For the same compound, the level at 167.9 h (patient ID 5, TIME 167.9, DOSE 100 at 0 then 50 from 12, ADDL 15, II 12, DUR 1, WT 60, CCR 41.15, ALB 36.1, APACHE 21, single sample) was 2900 ng/mL, the level at 182 h (patient ID 5, TIME 182, DOSE 100 at 0 then 50 from 12, ADDL 15, II 12, DUR 1, WT 60, CCR 41.15, ALB 36.1, APACHE 21, single sample) was 4510 ng/mL and the level at 186 h (patient ID 5, TIME 186, DOSE 100 at 0 then 50 from 12, ADDL 15, II 12, DUR 1, WT 60, CCR 41.15, ALB 36.1, APACHE 21, single sample) was 3290 ng/mL. The level at 73.25 h (patient ID 10, TIME 73.25, DOSE 100 at 0 then 50 every 12 to 72, DUR 1, WT 62, CCR 72.12, ALB 33.9, APACHE 17, single sample) was 6730 ng/mL, the level at 79 h (patient ID 10, TIME 79, DOSE 100 at 0 then 50 every 12 to 72, DUR 1, WT 62, CCR 72.12, ALB 33.9, APACHE 17, single sample) was 6230 ng/mL and the level at 84.42 h (patient ID 10, TIME 84.42, DOSE 100 at 0 then 50 every 12 to 72, DUR 1, WT 62, CCR 72.12, ALB 33.9, APACHE 17, single sample) was 3890 ng/mL. It also gave a level at 98 h (patient ID 11, TIME 98, DOSE 100 at 0 then 50 every 12 to 96, DUR 2, WT 55, CCR 67.29, ALB 30.9, APACHE 46, single sample) of 5200 ng/mL, a level at 102 h (patient ID 11, TIME 102, DOSE 100 at 0 then 50 every 12 to 96, DUR 2, WT 55, CCR 67.29, ALB 30.9, APACHE 46, single sample) of 2530 ng/mL and a level at 105.5 h (patient ID 11, TIME 105.5, DOSE 100 at 0 then 50 every 12 to 96, DUR 2, WT 55, CCR 67.29, ALB 30.9, APACHE 46, single sample) of 2180 ng/mL. The level at 145 h (patient ID 13, TIME 145, DOSE 75 at 0 then 50 every 12 from 12 (ADDL 12), DUR 1, WT 57, CCR 41.39, ALB 24.4, APACHE 18, single measurement) was 2590 ng/mL, the level at 150 h (patient ID 13, TIME 150, DOSE 75 at 0 then 50 every 12 from 12 (ADDL 12), DUR 1, WT 57, CCR 41.39, ALB 24.4, APACHE 18, single measurement) was 1830 ng/mL and the level at 156 h (patient ID 13, TIME 156, DOSE 75 at 0 then 50 every 12 from 12 (ADDL 12), DUR 1, WT 57, CCR 41.39, ALB 24.4, APACHE 18, single measurement) was 1090 ng/mL. The level at 50.5 h (patient ID 14, TIME 50.5, DOSE 100 at 0, 50 at 12, 24, 36, 50.8, DUR 1, WT 60, CCR 111.4, ALB 25.4, APACHE 25, single measurement) was 1140 ng/mL, the level at 51.8 h (patient ID 14, TIME 51.8, DOSE 100 at 0, 50 at 12, 24, 36, 50.8, DUR 1, WT 60, CCR 111.4, ALB 25.4, APACHE 25, single measurement) was 4060 ng/mL and the level at 57.8 h (patient ID 14, TIME 57.8, DOSE 100 at 0, 50 at 12, 24, 36, 50.8, DUR 1, WT 60, CCR 111.4, ALB 25.4, APACHE 25, single measurement) was 1820 ng/mL. The level at 72.66 h (patient ID 15, TIME 72.66, DOSE 100 at 0, 50 at 12, 100 at 24, 75 at 36, 48, 60, WT 50, CCR 35.85, ALB 29.5, APACHE 39, single measurement) was 3110 ng/mL, the level at 54.67 h (patient ID 19, TIME 54.67, DOSE 100 at 0 then 50 every 12 from 12 (ADDL 3), DUR 1, WT 60, CCR 35.69, ALB 25.6, APACHE 19, single measurement) was 1860 ng/mL and the level at 60 h (patient ID 19, TIME 60, DOSE 100 at 0 then 50 every 12 from 12 (ADDL 3), DUR 1, WT 60, CCR 35.69, ALB 25.6, APACHE 19, single measurement) was 1300 ng/mL. For the same compound, the level at 73.45 h (patient ID 20, TIME 73.45, DOSE 100 at 0 then 50 every 12 from 12 (ADDL 6), DUR 1.45, WT 75, CCR 84.86, ALB 29.5, APACHE 18, single measurement) was 4270 ng/mL, the level at 77.45 h (patient ID 20, TIME 77.45, DOSE 100 at 0 then 50 every 12 from 12 (ADDL 6), DUR 1.45, WT 75, CCR 84.86, ALB 29.5, APACHE 18, single measurement) was 2700 ng/mL and the level at 84 h (patient ID 20, TIME 84, DOSE 100 at 0 then 50 every 12 from 12 (ADDL 6), DUR 1.45, WT 75, CCR 84.86, ALB 29.5, APACHE 18, single measurement) was 1960 ng/mL. For the same compound, the level at 50 h (patient ID 21, TIME 50, DOSE 150 at 0 then 75 every 12 from 12 (ADDL 4), DUR 2, WT 70, CCR 56.54, ALB 38.1, APACHE 40, single measurement) was 7030 ng/mL and the level at 54 h (patient ID 21, TIME 54, DOSE 150 at 0 then 75 every 12 from 12 (ADDL 4), DUR 2, WT 70, CCR 56.54, ALB 38.1, APACHE 40, single measurement) was 3830 ng/mL.
